Experimental data reported in patent US11226337B2, “Chemoproteomic profiling of protein electrophilic and oxidative post-translational modifications” (Zenagem, LLC, priority 2017, dated 2022).
Entries after “also recorded” stand apart in the source; their conditions may differ.

Experiments:
AMD1 = molecular target: T1, AMD1 (Homo sapiens, UniProt P17707); experiment: gel-based RP-ABPP of transfected HEK293T cells; format: cell-based; details: for blocking of probe labeling by excess non-clickable probe: transfected HEK293T cells
T1 construct: Full-length genes encoding three probe 1- and one probe 2-targeted proteins were amplified from a cDNA library; expressed in transfected cells; host or cells: HEK293T
T1 sequence (P17707 68-334 limits assumed): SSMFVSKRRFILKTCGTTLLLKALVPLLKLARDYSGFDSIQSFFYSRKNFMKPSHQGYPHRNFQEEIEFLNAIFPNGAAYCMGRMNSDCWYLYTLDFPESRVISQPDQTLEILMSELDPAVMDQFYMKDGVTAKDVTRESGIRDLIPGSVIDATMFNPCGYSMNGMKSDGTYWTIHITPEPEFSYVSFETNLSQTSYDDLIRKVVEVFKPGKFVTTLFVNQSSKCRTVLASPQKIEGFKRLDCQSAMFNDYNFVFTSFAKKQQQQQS
T1 sequence (P17707 1-67 limits assumed): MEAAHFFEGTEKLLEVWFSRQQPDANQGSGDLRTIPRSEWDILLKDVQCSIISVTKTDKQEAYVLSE

FTO = molecular target: T2, FTO (Homo sapiens, UniProt Q9C0B1); experiment: gel-based RP-ABPP of transfected HEK293T cells; format: cell-based; details: transfected HEK293T cells
T2 construct: Full-length genes encoding three probe 1- and one probe 2-targeted proteins were amplified from a cDNA library; expressed in transfected cells; host or cells: HEK293T
Method: (§1) Soluble proteomes from treated cells were diluted to 1 mg/mL. To each sample (50 μL), a freshly prepared “click” or CuAAC reagent mixture (6 μL) containing 0.1 mM tris(benzyltriazolylmethyl)amine (TBTA) (3 μL/sample, 1.7 mM in 4:1 DMSO:t-BuOH), 1 mM CuSO4 (1 μL/sample, 50 mM in H2O), 25 μM azide-rhodamine (1 μL/sample, 1.25 mM in DMSO), and freshly prepared 1 mM tris(2-carboxyethyl)phosphine (TCEP) (1 μL/sample, 50 mM in PBS or H2O) was added to conjugate the fluorophore to probe-labelled proteins. TBTA was purchased from TCI and azide-rhodamine was synthesized as previously described^64. Upon addition of the click mixture, each reaction was immediately mixed by vortexing and then allowed to react at ambient temperature for 1 hour before quenching the reactions with SDS loading buffer (4× stock, 17 μL). Proteins (˜25 μg total protein loaded per gel lane) were resolved by SDS-PAGE (10% acrylamide) and visualized by in-gel fluorescence scanning on a Hitachi FMBIO-II or BioRad ChemiDoc MP flatbed fluorescence scanner.
(§2) Full-length genes encoding three probe 1- and one probe 2-targeted proteins were amplified from a cDNA library derived from the same low-passage HEK293T cells used for proteomic profiling. The library was generated using Ribozol RNA extraction (Amresco) and iScript reverse transcription (Bio-rad) supermix reagents. The gene products were cloned into mammalian expression vectors containing N- or C-terminal FLAG affinity tags. The gene for S-adenosyl-L-methionine decarboxylase (AMD1 or AdoMetDC) was cloned into pFLAG-CMV-sport6 (N-terminal tag) at NotI and SalI restriction sites. AMD1, Secernin-3 (SCRN3) and fat mass- and obesity-associated Fe(II)- and 20G-dependent dioxygenase (FTO) were cloned into pRK5 (C-terminal tag) at SalI and NotI restriction sites. Kelch-like ECH-associated protein-1 (Keapl) (N-terminal tag), and empty plasmids of pRK5 were gifts. Full sequences of the genes were confirmed. The proteins expressed via transient transfection in HEK293T cells contain an additional 15 amino acids appended to their N-terminal methionine residue or C-terminus (MDYKD4KLKACGR (SEQ ID NO: 43) and A3G4DYKD4K (SEQ ID NO: 44), respectively). The DYKD4K (SEQ ID NO: 42) appendage in each contains the classic FLAG epitope that permits detection by western blotting or purification by affinity chromatography. Mutants of SCRN3 were generated using QuikChange site-directed mutagenesis with primers containing the desired mutations and their respective compliments. The gene for the deletion mutant of SCRN3 with the sequence MetlCys6-SCRN3 instead of Met1 Glu2Pro3Phe4Ser5Cys6-SCRN3 (SEQ ID NO: 45) was amplified from the wild-type C-terminal FLAG-tagged construct and cloned into the same vector.
(§3) HEK293T cells were grown to ˜40% confluence under standard growth conditions passaged in the appropriate media before adding the appropriate expression vector (control cells (‘mock’) received an equal amount of the appropriate empty vector) and polyethyleneimine (PEI) ‘MAX’ (MW 40,000, Polysciences Inc.) as a transfection reagent under standard transfection conditions (3:1 vector/PEI (w/w) ratio). Cells were incubated for ˜48 h before labelling in situ. Proteomes were processed for gel- and MS-based experiments as described above and in Example 2.
(§4) After scanning fluorescence, that same gel was transferred to nitrocellulose membrane in Towbin buffer, the membrane was blocked for ˜1 hour at ambient temperature with 5% nonfat dry milk (w/v) in Tris-buffered saline with Tween 20 (TBST) and incubated with primary antibodies in the same solution overnight at 4° C. The antibodies included anti-FLAG (1:2500, F1804, Sigma), anti-AdoMetDC (1:500, sc-160951, Santa Cruz Biotechnology) and anti-His6 (1:1000, ab18184, Abcam). The blots were washed (3×5 min, TBST), incubated with secondary antibodies (1:10,000, IRDye 800CW, LICOR) in milk for 1 hour at ambient temperature, washed again (3×5 min, TBST), and visualized on a LICOR Odyssey Scanner.

KEAP1 = molecular target: T3, KEAP1 (Homo sapiens, UniProt Q14145); experiment: gel-based RP-ABPP of transfected HEK293T cells; format: cell-based; details: transfected HEK293T cells
T3 construct: Full-length genes encoding three probe 1- and one probe 2-targeted proteins were amplified from a cDNA library; expressed in transfected cells; host or cells: HEK293T
Method: as §1, §2, §3, §4

SCRN3 = molecular target: T4, SCRN3 (Homo sapiens, UniProt Q0VDG4); experiment: gel-based RP-ABPP of transfected HEK293T cells; format: cell-based; details: transfected HEK293T cells
T4 construct: Full-length genes encoding three probe 1- and one probe 2-targeted proteins were amplified from a cDNA library; expressed in transfected cells; host or cells: HEK293T
T4 sequence (Q0VDG4 6-424): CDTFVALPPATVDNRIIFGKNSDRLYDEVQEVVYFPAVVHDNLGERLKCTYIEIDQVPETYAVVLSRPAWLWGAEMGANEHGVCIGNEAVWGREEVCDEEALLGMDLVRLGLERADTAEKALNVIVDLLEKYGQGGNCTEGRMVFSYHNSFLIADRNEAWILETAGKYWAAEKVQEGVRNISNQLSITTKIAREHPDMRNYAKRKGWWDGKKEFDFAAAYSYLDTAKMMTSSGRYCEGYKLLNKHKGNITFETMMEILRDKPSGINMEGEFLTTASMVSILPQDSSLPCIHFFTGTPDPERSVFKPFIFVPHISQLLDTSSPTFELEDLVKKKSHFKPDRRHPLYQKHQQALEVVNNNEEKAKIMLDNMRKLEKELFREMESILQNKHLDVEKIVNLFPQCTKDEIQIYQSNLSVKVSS
Method: as §1, §2, §3, §4

HEK293T cells = experiment: gel-based in situ probe labelling (rhodamine-azide, in-gel fluorescence); format: cell-based, human; details: probe 1 3 mM, 30 min; dihydrochloride
Method: For gel-based experiments, cells were plated and grown to near complete confluence at the time of treatment. Cells were washed with cold phosphate buffered saline (PBS, pH 7.4) and replenished with serum-free DMEM (˜15% of normal passage volume, e.g. a 10 cm plate normally passaged with 10 mL media received 1.5 mL) supplemented with 10 mM Na-HEPES buffer (pH 7.5). Unless otherwise indicated, cells were incubated with probes (3 mM and 1 mM for probes 1 and 2, respectively) in the absence or presence of 10-fold excess non-clickable competitor probes (30 mM and 10 mM for 3 and 4, respectively) for 0.5 hour at 37° C. When applicable, probe and competitor were premixed before co-administering to the cells.
The cells were lysed, and the cell proteomes were conjugated to a rhodamine-azide (Rh—N3) reporter tag.
as §1

[1] = molecular target: T5, SCRN3 Secernin-3 (Q0VDG4) (Homo sapiens, UniProt Q0VDG4); experiment: SILAC RP-ABPP; format: cell-based; details: SILAC competition, drug in place of probe 3
T5 construct: shared by both the endogenous and recombinant forms of these proteins; endogenous in cells; host or cells: HEK293T and MDA-MB-231
T5 sequence (Q0VDG4 6-424): T4 sequence (Q0VDG4 6-424)
Method: (§5) Modifications to this protocol included using isotopically ‘light’ and ‘heavy’ SILAC cells that were also grown to near complete confluence prior to treatment. Isotopically light cells were treated with the non-clickable hydrazine probe (at the same concentration as the probe in ‘enrichment’ experiments) or the probe in the presence of 10-fold excess non-clickable hydrazine probe as a competitor (in ‘competition’ experiments). Isotopically heavy cells were treated with the probe for both types of experiments. These treatments were performed in non-SILAC media. Following treatments, cells were washed with cold PBS to remove the probe-containing media, harvested by scraping, collected by centrifugation (1,400 g, 3 min, 4° C.), washed again by resuspension in cold PBS and frozen as pellets at −80° C. until use.
(§6) The fractionated equimolar mixture of heavy and light soluble proteomes (1-1.5 mg) was diluted to 1 mL in PBS. Click reactions were scaled accordingly (except for biotin-azide) to maintain final concentrations of 0.1 mM TBTA, 1 mM CuSO4, 100 μM biotin-azide (10 mM in DMSO) and 1 mM TCEP. The mixture was vortexed and placed on a rotator at ambient temperature for 1 hour. Sequential addition of and mixture with pre-chilled methanol (MeOH, 2 mL), chloroform (CHCl3, 0.5 mL) and PBS (1 mL) on ice quenched the reaction. The precipitated proteome was centrifuged (5,000 g, 10 min, 4° C.) to fractionate the protein interphase from the organic and aqueous solvent layers. The protein pellet was washed with cold 1:1 MeOH:CHCl3 (3×1 mL), mildly sonicated in cold 4:1 MeOH:CHCl3 (2.5 mL) and pelleted once more by centrifugation (5,000 g, 10 min, 4° C.) to ensure click reagents were efficiently removed.
(§7) Heavy and light parent ion chromatograms associated with successfully identified peptides were extracted and compared using CIMAGE software as previously described^69. At least one ion of a co-eluting heavy-light pair must be accurately identified from a fragmentation event that occurred within the retention time window (±10 min) of parent ion elution. To ensure that the correct pair of peaks is quantified, chromatograms are extracted within a 10 ppm error tolerance of the predicted m/z, the signal-to-noise ratio must be >2.5 and the ‘co-elution correlation score’ and ‘envelope correlation score’ must have R^2 values ≥0.8. In addition, peptides detected as ‘singletons,’ where only the heavy ion of a peptide pair was identified, but for which passed all other filtering parameters, are given a default assigned ratio of ‘20,’ which is defined as any measured ratio that is ≥20.
(§8) To further eliminate false positives and any stochastic variability in the data, protein ratios were then determined by the median peptide ratio derived from three or more unique quantified peptides. Protein ratios that complied with these criteria from a single experiment were then averaged with ratios acquired from ≥3 replicates to provide final values for each type of experiment in both cell lines with both probes. […] Probe targets in HEK293T and MDA-MB-231 cells represent data combined from ≥3 independent biological replicates with each cell type performed with several independent batches of synthesized probes over a period of almost two years.
(§9) Two types of experiments were performed—1) direct enrichment of probe 1-labelled proteins from heavy cells in comparison to light control cells treated with the non-clickable hydrazine (3) at the same concentration as 1 (3 mM for 0.5 h); and 2) competition experiments where both heavy and light cells were treated probe 1, but light cells were also treated with 10× competitor 3 (FIG. 3A)—in two different human cell lines (HEK293T cells and the human breast cancer cell line MDA-MB-231).

[2] = molecular target: T6, AMD1 S-adenosylmethionine decarboxylase (P17707) (Homo sapiens, UniProt P17707); experiment: SILAC RP-ABPP; format: cell-based; details: SILAC competition, drug in place of probe 3
T6 construct: shared by both the endogenous and recombinant forms of these proteins; endogenous in cells; host or cells: HEK293T and MDA-MB-231
T6 sequence (P17707 68-334 limits assumed): T1 sequence (P17707 68-334 limits assumed)
T6 sequence (P17707 1-67 limits assumed): T1 sequence (P17707 1-67 limits assumed)
Method: as §5, §6, §7, §8, §9

[3] = molecular target: T7, SCRN2 Secernin-2 (Q96FV2) (Homo sapiens, UniProt Q96FV2); experiment: SILAC RP-ABPP; format: cell-based; details: SILAC competition, drug in place of probe 3
T7 construct: shared by both the endogenous and recombinant forms of these proteins; endogenous in cells; host or cells: HEK293T and MDA-MB-231
Method: as §5, §6, §7, §8, §9

LGMN Legumain (Q99538) = molecular target: T8, LGMN Legumain (Q99538) (Homo sapiens, UniProt Q99538); experiment: SILAC RP-ABPP; format: cell-based; details: SILAC competition, drug in place of probe 3
T8 construct: shared by both the endogenous and recombinant forms of these proteins; endogenous in cells; host or cells: HEK293T and MDA-MB-231
T8 sequence (Q99538 18-323): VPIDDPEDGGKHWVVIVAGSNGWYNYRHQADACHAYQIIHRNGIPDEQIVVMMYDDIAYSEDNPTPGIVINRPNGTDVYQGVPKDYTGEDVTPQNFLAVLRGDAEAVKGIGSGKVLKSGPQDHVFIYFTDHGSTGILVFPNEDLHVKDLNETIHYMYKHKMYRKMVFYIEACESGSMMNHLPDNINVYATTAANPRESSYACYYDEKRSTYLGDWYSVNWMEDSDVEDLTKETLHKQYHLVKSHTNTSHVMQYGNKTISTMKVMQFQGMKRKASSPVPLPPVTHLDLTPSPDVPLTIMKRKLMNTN
Method: as §5, §6, §7, §8, §9

SMILES | increase of probe 1 labeling of recombinant AMD1 (AMD1; L-methionine lowered from 200 μM to 10 μM, AMD1 expression negligibly changed) | blocking of probe labeling by excess non-clickable probe (FTO) | blocking of probe labeling by excess non-clickable probe (KEAP1) | blocking of probe labeling by excess non-clickable probe (SCRN3) | blocking of probe labeling by excess non-clickable probe (AMD1) | competition of probe 1 labelling by co-administered non-clickable probe (HEK293T cells) | competition of probe 1 labelling by competitor drug [1] | competition of probe 1 labelling by competitor drug [2] | competition of probe 1 labelling by competitor drug [3] | competition of probe 1 labelling by competitor drug (LGMN Legumain (Q99538))
CSCC[C@H](N)C(=O)O [L-methionine] | seven-fold |  |  |  |  |  |  |  |  | 
Cl.NNc1ccccc1 [probe 4, phenyl hydrazine hydrochloride, reference compound] |  | blocked | blocked | blocked | blocked |  |  |  |  | 
CCCNN.Cl.Cl [probe 3, Propyl hydrazine dihydrochloride, reference compound] |  | blocked | blocked | blocked | blocked | suppressed by increasing concentrations; also recorded: blocks the labeling of proteins by probe 1 |  |  |  | 
NNC(=O)c1ccncc1 [isoniazid, reference compound] |  |  |  |  |  |  | almost no competition | almost no competition | almost no competition | almost no competition
NNCCc1ccccc1 [phenelzine, reference compound] |  |  |  |  |  |  | Near complete loss of probe labelling | Near complete loss of probe labelling | Near complete loss of probe labelling | Near complete loss of probe labelling
